In patent US6440903B1, “Substituted 2,4-diamino-1,3,5-triazines as herbicides” (Bayer Aktiengesellschaft, priority 1996, dated 2002):

Tests used:
Type in all cases: in vivo
Abutilon = assay: Pre-emergence test; details: greenhouse, scored after three weeks
Protocol: (§1) Pre-emergence Test Solvent: 5 parts by weight of acetone Emulsifier: 1 part by weight of alkylaryl polyglycol ether To produce a suitable preparation of active compound, 1 part by weight of active compound is mixed with the stated amount of solvent, the stated amount of emulsifier is added and the concentrate is diluted with water to the desired concentration. Seeds of the test plants are sown in normal soil. After about 24 hours, the soil is watered with the preparation of active compound. The amount of water per unit area is advantageously kept constant. The concentration of active compound in the preparation is immaterial, only the application rate of active compound per unit area matters. After three weeks, the degree of damage to the plants is scored visually in % damage in comparison to the development of the untreated control. The figures denote: 0%=no effect (like untreated control) 100%=total destruction

Alopecurus = assay: Pre-emergence test; details: greenhouse, scored after three weeks
Protocol: as §1

Datura [1] = assay: Pre-emergence test; details: greenhouse, 500 g of ai./ha, scored after three weeks
Protocol: as §1

Digitaria [2] = assay: Pre-emergence test; details: greenhouse, 500 g of ai./ha, scored after three weeks
Protocol: as §1

Echinochloa = assay: Pre-emergence test; details: greenhouse, 500 g of ai./ha, scored after three weeks
Protocol: as §1

Maize [3] = assay: Pre-emergence test; details: greenhouse, scored after three weeks
Protocol: as §1

Matricaria = assay: Pre-emergence test; details: greenhouse, 500 g of ai./ha, scored after three weeks
Protocol: as §1

Amaranthus [4] = assay: Pre-emergence test; details: greenhouse, 1000 g of ai./ha, scored after three weeks
Protocol: as §1

Galium = assay: Pre-emergence test; details: greenhouse, 1000 g of ai./ha, scored after three weeks
Protocol: as §1

Setaria [5] = assay: Pre-emergence test; details: greenhouse, 1000 g of ai./ha, scored after three weeks
Protocol: as §1

Sinapis = assay: Pre-emergence test; details: greenhouse, 1000 g of ai./ha, scored after three weeks
Protocol: as §1

Chenopodium = assay: Post-emergence test; details: greenhouse, scored after three weeks
Procedure, shortened: (§2)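 Readout: visual % damage vs untreated control at 3 weeks (0% none, 100% total kill). Post-emergence spray on 5-15 cm plants, 1000 l water/ha, compound in acetone plus alkylaryl polyglycol ether, water-diluted.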

Datura [6] = assay: Post-emergence test; details: greenhouse, 125 g of ai./ha, scored after three weeks
Procedure, shortened: as §2

Digitaria [7] = assay: Post-emergence test; details: greenhouse, 125 g of ai./ha, scored after three weeks
Procedure, shortened: as §2

Maize [8] = assay: Post-emergence test; details: greenhouse, 125 g of ai./ha, scored after three weeks
Procedure, shortened: as §2

Polygonum = assay: Post-emergence test; details: greenhouse, 125 g of ai./ha, scored after three weeks
Procedure, shortened: as §2

Setaria [9] = assay: Post-emergence test; details: greenhouse, scored after three weeks
Procedure, shortened: as §2

Viola = assay: Post-emergence test; details: greenhouse, scored after three weeks
Procedure, shortened: as §2

Wheat = assay: Post-emergence test; details: greenhouse, scored after three weeks
Procedure, shortened: as §2

Amaranthus [10] = assay: Post-emergence test; details: greenhouse, 250 g of ai./ha, scored after three weeks
Procedure, shortened: as §2

Stellaria = assay: Post-emergence test; details: greenhouse, 250 g of ai./ha, scored after three weeks
Procedure, shortened: as §2

Q: Which results are given for `CC(F)c1nc(N)nc(NC(C)c2ccc(Cl)cc2)n1` (stereo not shown) [drawing 93]?
A: % damage, Abutilon (Abutilon; 500 g of ai./ha): 100%; % damage, Alopecurus (Alopecurus; 500 g of ai./ha): 100%; % damage, Datura (Datura [1]): 100%; % damage, Digitaria (Digitaria [2]): 100%; % damage, Echinochloa (Echinochloa): 100%; % damage, Maize (Maize [3]; 500 g of ai./ha): 0%; % damage, Matricaria (Matricaria): 100%

Q: For `CC(Nc1nc(N)nc(C(C)(C)F)n1)c1ccc(Cl)cc1` (stereo not shown) [drawing 96], which “% damage, Abutilon” value (Abutilon; 1000 g of ai./ha) is on record?
A: Its value is 100%.

Q: And the “% damage, Alopecurus” value (Alopecurus; 1000 g of ai./ha)?
A: Its value is 100%.

Q: What about the “% damage, Amaranthus” value (Amaranthus [4]) of the same compound?
A: Its value is 100%.

Q: What about the “% damage, Galium” value (Galium) of the same compound?
A: Its value is 100%.

Q: And the “% damage, Maize” value (Maize [3]; 1000 g of ai./ha)?
A: Its value is 20%.

Q: What about the “% damage, Setaria” value (Setaria [5]) of the same compound?
A: The value was 100%.

Q: What about the “% damage, Sinapis” value (Sinapis) of the same compound?
A: The value was 100%.

Q: With `CC(F)c1nc(N)nc(NC(C)c2ccc(Cl)cc2)n1` (stereo not shown) [drawing 104] as the compound, how does the “% damage, Chenopodium” value (Chenopodium; 125 g of ai./ha) read?
A: Its value is 100%.

Q: What about the “% damage, Datura” value (Datura [6]) of the same compound?
A: Its value is 100%.

Q: And the “% damage, Digitaria” value (Digitaria [7])?
A: Its value is 80%.

Q: And the “% damage, Maize” value (Maize [8])?
A: The value was 10%.

Q: And the “% damage, Polygonum” value (Polygonum)?
A: The value was 100%.

Q: What about the “% damage, Setaria” value (Setaria [9]; 125 g of ai./ha) of the same compound?
A: The value was 90%.

Q: And the “% damage, Viola” value (Viola; 125 g of ai./ha)?
A: The value was 100%.

Q: And the plant injury at 125 g/ha (Wheat; Triticum aestivum, 504 h, 125 g of ai./ha, read-out: % damage, Wheat)?
A: The plant injury at 125 g/ha was 0%.

Q: How did the “% damage, Amaranthus” value (Amaranthus [10]) turn out when `CCC(Nc1nc(N)nc(C(F)(F)F)n1)c1ccc(Cl)cc1` (stereo not shown) [drawing 142] was run?
A: Its value is 100%.

Q: And the “% damage, Chenopodium” value (Chenopodium; 250 g of ai./ha)?
A: Its value is 100%.

Q: And the “% damage, Setaria” value (Setaria [9]; 250 g of ai./ha)?
A: The value was 100%.

Q: And the “% damage, Stellaria” value (Stellaria)?
A: The value was 100%.

Q: And the “% damage, Viola” value (Viola; 250 g of ai./ha)?
A: Its value is 100%.

Q: What about the “% damage, Wheat” value (Wheat; 250 g of ai./ha) of the same compound?
A: The value was 10%.
